# From ChEMBL document CHEMBL1201862, “PubChem BioAssay data set” (2004)
# Calls of active or inactive are those of the source.
# Key:
# [1] = molecular target: T1, Oxysterols receptor LXR-beta (Homo sapiens, UniProt P55055); assay type: functional, cell-based;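 further: agonist activity at LXR measured by a cell-based luminescence readout across a dose range, run as a counterscreen for daf-12 agonists; HEK293 cells with Gal4-LXR fusion and GAL4-driven luciferase reporter; potency for activation of Gal4-LXR reporter so compounds are agonists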
# T1 sequence (P55055 whole entry): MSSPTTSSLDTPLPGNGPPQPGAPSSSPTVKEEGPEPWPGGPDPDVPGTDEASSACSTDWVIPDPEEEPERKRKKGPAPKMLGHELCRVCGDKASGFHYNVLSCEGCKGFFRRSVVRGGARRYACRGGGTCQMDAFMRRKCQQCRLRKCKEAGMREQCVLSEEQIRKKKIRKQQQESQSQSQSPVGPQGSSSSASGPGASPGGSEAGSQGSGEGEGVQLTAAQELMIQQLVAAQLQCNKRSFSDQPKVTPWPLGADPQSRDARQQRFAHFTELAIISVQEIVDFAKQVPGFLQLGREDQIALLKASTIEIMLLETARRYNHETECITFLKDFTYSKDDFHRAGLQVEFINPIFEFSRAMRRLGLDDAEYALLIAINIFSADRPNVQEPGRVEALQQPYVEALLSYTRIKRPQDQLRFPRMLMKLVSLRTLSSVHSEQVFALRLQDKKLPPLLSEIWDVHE
# [2] = HEK293T cytotoxicity, dose response, cytotoxicity control for miR-122 modulator project, cell-based, inhibitor set, cherry-pick, set 2 (AID 720697); assay type: functional
# [3] = molecular target: T2, Replicative DNA helicase DnaB (Mycobacterium tuberculosis, UniProt P9WMR3); test: DnaB intein splicing inhibitors, dose response, biochemical, cell-free fluorescence (AID 449749); assay type: functional
# T2 sequence (P9WMR3 whole entry): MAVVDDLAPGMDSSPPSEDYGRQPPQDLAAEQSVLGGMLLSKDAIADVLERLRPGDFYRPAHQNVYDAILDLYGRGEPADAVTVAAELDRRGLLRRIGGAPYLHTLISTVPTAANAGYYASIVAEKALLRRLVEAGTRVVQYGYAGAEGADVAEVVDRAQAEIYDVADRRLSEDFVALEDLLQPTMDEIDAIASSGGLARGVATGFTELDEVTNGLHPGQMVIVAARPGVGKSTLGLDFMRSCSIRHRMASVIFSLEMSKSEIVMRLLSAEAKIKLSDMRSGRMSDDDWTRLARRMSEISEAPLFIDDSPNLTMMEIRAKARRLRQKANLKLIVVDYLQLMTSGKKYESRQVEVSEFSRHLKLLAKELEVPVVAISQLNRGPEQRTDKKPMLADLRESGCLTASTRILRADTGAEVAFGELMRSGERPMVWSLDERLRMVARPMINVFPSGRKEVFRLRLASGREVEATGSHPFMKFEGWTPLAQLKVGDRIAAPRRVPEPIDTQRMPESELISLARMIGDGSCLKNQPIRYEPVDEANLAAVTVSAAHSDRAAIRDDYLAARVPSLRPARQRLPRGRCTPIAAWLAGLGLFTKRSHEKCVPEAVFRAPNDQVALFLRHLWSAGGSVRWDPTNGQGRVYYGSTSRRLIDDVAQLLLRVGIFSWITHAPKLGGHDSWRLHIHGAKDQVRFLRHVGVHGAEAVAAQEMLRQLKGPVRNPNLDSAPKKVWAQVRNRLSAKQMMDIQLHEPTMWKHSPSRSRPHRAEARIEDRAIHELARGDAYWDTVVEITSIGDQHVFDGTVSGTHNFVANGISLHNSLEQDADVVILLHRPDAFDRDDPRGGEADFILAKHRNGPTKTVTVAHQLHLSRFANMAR
# Protein RecA = molecular target: T3, Protein RecA (Mycobacterium tuberculosis, UniProt P9WHJ3); test: Fluorescence Cell-Free Homogeneous Dose Retest to Identify Inhibitors of RecA-Intein Splicing Activity. [Related pubchem assays (depositor defined):AID2097, AID2223, AID489010, AID492950]; assay type: functional
# T3 sequence (P9WHJ3 whole entry): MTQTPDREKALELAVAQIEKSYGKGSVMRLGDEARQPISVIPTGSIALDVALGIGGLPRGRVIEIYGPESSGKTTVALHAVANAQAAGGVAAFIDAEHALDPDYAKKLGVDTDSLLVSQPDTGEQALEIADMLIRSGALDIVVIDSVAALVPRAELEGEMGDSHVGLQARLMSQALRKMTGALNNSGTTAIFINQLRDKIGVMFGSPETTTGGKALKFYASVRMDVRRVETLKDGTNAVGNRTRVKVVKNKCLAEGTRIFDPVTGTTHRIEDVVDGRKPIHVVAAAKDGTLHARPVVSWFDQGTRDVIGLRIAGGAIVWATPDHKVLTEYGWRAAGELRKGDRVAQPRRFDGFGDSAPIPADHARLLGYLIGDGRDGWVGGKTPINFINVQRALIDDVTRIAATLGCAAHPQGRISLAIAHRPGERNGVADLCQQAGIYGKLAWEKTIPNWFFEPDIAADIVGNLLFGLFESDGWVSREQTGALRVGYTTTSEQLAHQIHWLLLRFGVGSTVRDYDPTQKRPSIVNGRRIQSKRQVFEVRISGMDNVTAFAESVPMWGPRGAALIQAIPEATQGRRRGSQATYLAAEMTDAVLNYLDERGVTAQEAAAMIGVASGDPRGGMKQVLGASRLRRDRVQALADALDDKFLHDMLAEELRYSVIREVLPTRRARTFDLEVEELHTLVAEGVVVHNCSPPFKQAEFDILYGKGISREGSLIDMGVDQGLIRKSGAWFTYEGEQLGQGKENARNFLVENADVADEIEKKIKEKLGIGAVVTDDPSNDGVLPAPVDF
# [4] = ADAM10 inhibitors, peptide cleavage, dose response, biochemical, QFRET (AID 743254);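 further: ADAM10 enzyme with the DM2 quenched FRET peptide as substrate; EDANS fluorescence gain as the protease cuts the substrate; inhibitor potency against ADAM10 proteolytic activity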
# [5] = molecular target: Disintegrin and metalloproteinase domain-containing protein 17 (Homo sapiens, UniProt P78536); test: ADAM17 protease inhibitors, dose response, counter-screen for ADAM10 exosite inhibitor project, biochemical, quenched FRET substrate (AID 743253)
# Protein Wnt-3a = Protein Wnt-3a (Mus musculus, UniProt P27467); test: SAR analysis of small molecule antagonists of Gli-SUFU in a Wnt3a luminescent reporter assay.; assay type: functional
# Cysteine protease ATG4B = molecular target: T4, Cysteine protease ATG4B (Homo sapiens, UniProt Q9Y4P1); assay type: functional;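 further: Fluorescence-based dose-response confirmation assay measuring inhibition of ATG4B activity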
# T4 sequence (Q9Y4P1 whole entry): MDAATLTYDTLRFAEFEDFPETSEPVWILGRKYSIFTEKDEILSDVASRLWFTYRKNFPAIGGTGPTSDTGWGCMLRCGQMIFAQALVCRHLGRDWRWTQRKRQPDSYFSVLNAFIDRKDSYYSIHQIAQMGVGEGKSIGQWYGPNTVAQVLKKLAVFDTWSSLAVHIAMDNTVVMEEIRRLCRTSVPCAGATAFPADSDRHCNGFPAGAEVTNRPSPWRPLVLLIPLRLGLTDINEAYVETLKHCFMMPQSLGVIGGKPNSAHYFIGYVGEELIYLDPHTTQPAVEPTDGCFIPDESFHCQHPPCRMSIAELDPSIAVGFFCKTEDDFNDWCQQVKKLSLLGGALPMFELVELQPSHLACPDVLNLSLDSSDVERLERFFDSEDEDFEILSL
# Phospholipase A2 = Phospholipase A2 (Homo sapiens, UniProt P04054); assay type: functional;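 further: confirmatory dose-response counterscreen on phospholipase A2, testing hits that came from an ultra-high-throughput screen for ATG4B inhibitors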
# [6] = molecular target: T5, Carboxy-terminal domain RNA polymerase II polypeptide A small phosphatase 1 (Homo sapiens, UniProt Q9GZU7); test: inhibitors of CTDSP1, concentration-response testing, biochemical assay, absorbance-based, actives from ultra-high-throughput screening (AID 540297); assay type: functional
# T5 sequence (Q9GZU7 whole entry): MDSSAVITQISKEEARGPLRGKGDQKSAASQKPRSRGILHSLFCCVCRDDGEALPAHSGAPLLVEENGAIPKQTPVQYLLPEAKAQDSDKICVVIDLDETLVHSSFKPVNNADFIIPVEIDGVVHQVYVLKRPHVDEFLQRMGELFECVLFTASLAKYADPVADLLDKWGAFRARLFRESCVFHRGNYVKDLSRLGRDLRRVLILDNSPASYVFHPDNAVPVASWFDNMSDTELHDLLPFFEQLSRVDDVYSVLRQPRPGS
# Caspase-6 = molecular target: T6, Caspase-6 (Homo sapiens, UniProt P55212); test: human caspase-6 inhibitors, dose response, biochemical, VEID-R110 fluorescence, cherry-pick (AID 720632)
# T6 sequence (P55212 whole entry): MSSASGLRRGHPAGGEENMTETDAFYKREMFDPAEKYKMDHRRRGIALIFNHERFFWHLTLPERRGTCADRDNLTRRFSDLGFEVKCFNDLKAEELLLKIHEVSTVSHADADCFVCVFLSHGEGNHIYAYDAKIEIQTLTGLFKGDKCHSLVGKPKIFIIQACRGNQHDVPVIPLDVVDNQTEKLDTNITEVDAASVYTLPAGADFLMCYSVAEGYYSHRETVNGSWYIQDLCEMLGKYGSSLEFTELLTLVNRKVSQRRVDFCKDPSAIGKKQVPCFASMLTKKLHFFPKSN
# Caspase-7 = molecular target: T7, Caspase-7 (Homo sapiens, UniProt P55210); test: human caspase-7 inhibitors, dose response, selectivity assay for caspase-6 inhibitor project, biochemical, DEVD-R110 fluorescence, cherry-pick (AID 743295)
# T7 sequence (P55210 whole entry): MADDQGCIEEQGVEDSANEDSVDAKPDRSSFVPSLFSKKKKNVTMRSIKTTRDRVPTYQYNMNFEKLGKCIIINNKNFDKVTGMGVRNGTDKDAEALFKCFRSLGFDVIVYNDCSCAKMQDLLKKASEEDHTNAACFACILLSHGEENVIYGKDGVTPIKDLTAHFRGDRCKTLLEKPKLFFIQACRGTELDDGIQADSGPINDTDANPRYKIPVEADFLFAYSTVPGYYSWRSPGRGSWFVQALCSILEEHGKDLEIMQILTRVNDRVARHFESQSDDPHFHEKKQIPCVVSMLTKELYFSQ
# Caspase-8 = Caspase-8 (Homo sapiens, UniProt Q14790); test: caspase-8 inhibition counter-screen, dose response, selectivity assay for caspase-6 inhibitor project, biochemical, Z-IETD-R110 fluorescence, cherry-picked samples (AID 743294)
# Caspase-3 = molecular target: T8, Caspase-3 (Homo sapiens, UniProt P42574); test: caspase-3 enzyme inhibitors, selectivity check, dose response, selectivity assay for caspase-6 allosteric inhibitor project, biochemical, fluorescence, cherry-picked samples (AID 743291)
# T8 sequence (P42574 whole entry): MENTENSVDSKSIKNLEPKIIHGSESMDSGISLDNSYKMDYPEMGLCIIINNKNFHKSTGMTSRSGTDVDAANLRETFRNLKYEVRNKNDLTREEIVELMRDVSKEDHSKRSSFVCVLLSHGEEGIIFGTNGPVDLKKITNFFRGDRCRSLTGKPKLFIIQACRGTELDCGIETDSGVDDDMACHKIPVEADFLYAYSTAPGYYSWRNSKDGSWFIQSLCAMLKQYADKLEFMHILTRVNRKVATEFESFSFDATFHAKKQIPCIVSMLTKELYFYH
# Protein skinhead-1 = molecular target: T9, Protein skinhead-1 (Caenorhabditis elegans, UniProt P34707); assay type: functional
# T9 sequence (P34707 whole entry): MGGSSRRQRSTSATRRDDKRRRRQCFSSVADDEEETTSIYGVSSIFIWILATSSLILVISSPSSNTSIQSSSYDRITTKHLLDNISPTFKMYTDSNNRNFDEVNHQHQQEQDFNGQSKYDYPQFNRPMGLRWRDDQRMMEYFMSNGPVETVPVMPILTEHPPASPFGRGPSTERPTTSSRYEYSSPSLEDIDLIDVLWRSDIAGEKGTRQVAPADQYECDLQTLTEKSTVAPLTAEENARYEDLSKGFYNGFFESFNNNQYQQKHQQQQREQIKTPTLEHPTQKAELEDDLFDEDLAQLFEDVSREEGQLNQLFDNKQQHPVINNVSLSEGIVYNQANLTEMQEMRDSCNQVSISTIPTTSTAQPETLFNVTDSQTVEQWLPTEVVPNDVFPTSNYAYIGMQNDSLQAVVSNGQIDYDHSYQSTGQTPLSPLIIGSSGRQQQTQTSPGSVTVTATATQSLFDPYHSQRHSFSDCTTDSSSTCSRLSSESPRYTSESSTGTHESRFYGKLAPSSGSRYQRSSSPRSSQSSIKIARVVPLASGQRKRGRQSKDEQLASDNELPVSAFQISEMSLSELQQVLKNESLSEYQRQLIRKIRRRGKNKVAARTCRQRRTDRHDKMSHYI
# [7] = MITF Orthogonal Assay: SK-MEL-5 CTG Assay Measured in Cell-Based System Using Plate Reader - 2084-02_Inhibitor_Dose_DryPowder_Activity_Set7.; assay type: functional
# [8] = MITF: Counter assay: A375 proliferation Measured in Cell-Based System Using Plate Reader - 2084-03_Inhibitor_Dose_DryPowder_Activity_Set8.; assay type: functional; settings: A-375
# [9] = TRPM1 promoter luciferase reporter signal decrease, dose response, MITF inhibitor project, cell-based, SK-MEL-5, dry powder, set 8 (AID 624430); assay type: functional
# HEK293 = test: HEK293T cell cytotoxicity, dose response, cytotoxicity control, ATP luminescence, cherry-pick samples (AID 687005); assay type: functional, cell-based; settings: Homo sapiens;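 further: cells exposed to compound for 48 hours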
# [10] = HEK293 Cytotoxicity Assay Measured in Cell-Based System Using Plate Reader - 7071-01_Inhibitor_Dose_CherryPick_Activity_Set2.; assay type: functional
# Chain of Protein Wnt-3a (P27467 whole entry): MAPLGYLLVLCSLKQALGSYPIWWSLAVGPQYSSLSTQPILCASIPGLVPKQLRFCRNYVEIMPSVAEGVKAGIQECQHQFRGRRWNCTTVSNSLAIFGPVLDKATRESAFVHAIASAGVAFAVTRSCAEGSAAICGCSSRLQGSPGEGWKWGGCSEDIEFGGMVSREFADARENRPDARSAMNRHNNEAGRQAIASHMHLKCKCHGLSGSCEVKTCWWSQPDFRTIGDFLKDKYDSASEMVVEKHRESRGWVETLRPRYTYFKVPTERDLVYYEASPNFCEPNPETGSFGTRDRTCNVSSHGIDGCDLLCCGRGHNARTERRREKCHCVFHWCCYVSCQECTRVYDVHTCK
# Chain of Disintegrin and metalloproteinase domain-containing protein 17 (P78536 whole entry, the tested form may be a part): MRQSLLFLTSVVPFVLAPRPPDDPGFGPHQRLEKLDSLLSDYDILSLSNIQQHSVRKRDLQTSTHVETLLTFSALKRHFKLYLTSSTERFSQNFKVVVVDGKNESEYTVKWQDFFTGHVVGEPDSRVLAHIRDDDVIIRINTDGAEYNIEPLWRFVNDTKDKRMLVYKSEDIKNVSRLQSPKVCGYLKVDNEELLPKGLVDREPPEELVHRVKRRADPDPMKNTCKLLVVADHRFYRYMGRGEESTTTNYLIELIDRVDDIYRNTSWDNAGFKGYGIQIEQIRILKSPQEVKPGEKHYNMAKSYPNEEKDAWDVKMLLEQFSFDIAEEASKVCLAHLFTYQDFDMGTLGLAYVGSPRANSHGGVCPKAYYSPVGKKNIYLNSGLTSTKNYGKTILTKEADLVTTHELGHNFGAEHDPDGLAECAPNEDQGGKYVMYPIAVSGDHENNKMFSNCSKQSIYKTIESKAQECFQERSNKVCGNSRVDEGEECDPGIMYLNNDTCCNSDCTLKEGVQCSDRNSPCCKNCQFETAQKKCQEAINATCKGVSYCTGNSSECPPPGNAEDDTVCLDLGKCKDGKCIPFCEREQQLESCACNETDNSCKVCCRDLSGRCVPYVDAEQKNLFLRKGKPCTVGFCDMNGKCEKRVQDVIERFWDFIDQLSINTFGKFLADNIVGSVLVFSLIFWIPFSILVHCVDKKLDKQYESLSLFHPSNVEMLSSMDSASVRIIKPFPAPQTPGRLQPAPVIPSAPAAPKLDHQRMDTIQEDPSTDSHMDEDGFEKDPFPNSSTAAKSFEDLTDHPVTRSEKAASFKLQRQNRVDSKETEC
# Chain of Caspase-8 (Q14790 217-374 limits assumed): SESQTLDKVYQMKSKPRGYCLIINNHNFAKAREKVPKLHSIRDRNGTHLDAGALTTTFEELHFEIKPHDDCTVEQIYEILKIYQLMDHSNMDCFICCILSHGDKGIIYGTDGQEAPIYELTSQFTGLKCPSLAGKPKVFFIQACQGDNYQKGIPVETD
# Chain of Caspase-8 (Q14790 385-479 limits assumed): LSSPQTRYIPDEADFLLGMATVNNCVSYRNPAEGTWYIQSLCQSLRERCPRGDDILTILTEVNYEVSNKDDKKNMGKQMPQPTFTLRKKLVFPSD
# Chain of Phospholipase A2 (P04054 whole entry, the tested form may be a part): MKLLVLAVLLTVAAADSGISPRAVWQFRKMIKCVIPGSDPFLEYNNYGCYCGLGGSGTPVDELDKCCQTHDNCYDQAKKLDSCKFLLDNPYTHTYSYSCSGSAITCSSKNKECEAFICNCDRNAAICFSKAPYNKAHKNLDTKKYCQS
structure (smiles),measurement,setting,value
CCOC(=O)c1sc2nc3c(cc2c1N)COC(C)(CC)C3 (centres undefined),EC50,[1],> 67.5 µM (inactive)
C/C=C/c1ccc([C@@H]2[C@@H](CO)N[C@@H]2CN(CC)C(=O)CN2CCOCC2)cc1,AC50,[2],431 nM (active)
CCOC(=O)c1ccc(N2C(=O)c3[nH]nc(-c4ccco4)c3C2c2ccc([N+](=O)[O-])cc2)cc1 (centres undefined),AC50,[3],2.92 µM (active)
same,EC50,Protein RecA,56.2 µM (active)
same,IC50,[4],17 µM (inactive)
same,IC50,[5],> 69.5 µM (inactive)
O=C(Nc1cc(N2CCCCC2)ncn1)c1ccc(Cl)cc1,IC50,Protein Wnt-3a,> 21.8 µM (inactive)
CN(C)c1ccc(C(CNS(=O)(=O)c2ccc(F)c(F)c2)c2c[nH]c3ccccc23)cc1 (centres undefined),IC50,[4],> 7.72 µM (active)
same,IC50,[5],> 69.5 µM (inactive)
O=c1oc(-c2ccccc2)nc2sc3c(c12)CCC3,IC50,Cysteine protease ATG4B,5.65 µM (active)
same,IC50,Phospholipase A2,1.95 µM (active)
same,IC50,[6],9.39 µM (active)
same,AC50,Caspase-6,440 nM (active)
same,AC50,Caspase-7,> 70 µM (inactive)
same,AC50,Caspase-8,43.9 µM (active)
same,AC50,Caspase-3,38.7 µM (active)
Clc1ccc(OCCSc2ncccn2)c(Br)c1,IC50,Protein skinhead-1,40.4 µM (active)
same,EC50,[1],> 67.5 µM (inactive)
CC(C)N1CCN(C2=C(Nc3ccc(Cl)cc3)C(=O)c3ccccc3C2=O)CC1,AC50,[7],10.5 µM (active)
same,AC50,[8],54.7 µM (active)
same,AC50,[9],2 µM (active)
C[C@@H]1CN([C@H](C)CO)C(=O)c2cccc(NC(=O)c3ccncc3)c2O[C@H]1CN(C)C(=O)Nc1ccc(C(F)(F)F)cc1,AC50,HEK293,27.7 µM (active)
same,AC50,[10],27.7 µM (active)
O=C(Nc1cc(N2CCCCC2)ncn1)c1ccccc1F,IC50,Protein Wnt-3a,< 0.0426 µM (active)
